Measurements as given in patent US20240226228A1, “ANTIMICROBIAL PEPTOID HAVING IMPROVED SELECTIVITY AND ANTIMICROBIAL COMPOSITION COMPRISING SAME” (priority 2021, published 2024).
Converted amounts (≈) assume the structure as drawn. Read-outs that look alike come from different tables or passages of the source. *1 amine or outer side, *2 acyl side, *3 side chain or, on linkers, in order; H or OH if unused. Where a SMILES comes first, the peptide text is derived from it. [ ]: non-standard residue; d: D form. Gly(N(CH2)2(3-indolyl)) = O=C(O)CNCCc1c[nH]c2ccccc12; Gly(N-CH2CH2-imidazol-4-yl) = O=C(O)CNCCc1c[nH]cn1; Nspe = C[C@H](NCC(=O)O)c1ccccc1; X1 = O=C(CN(CCCCO)[*:1])[*:2]; Nlys = NCCCCNCC(=O)O

Tests used:
E. coli ATCC25922 = conditions: for antimicrobial activity (in words): E. coli and S. aureus, compared to Peptoid 1, parent peptoid or TFA salt as stated
Method: (§1) To measure the antimicrobial activity of the peptoids synthesized in Example 1, an E. coli ATCC25922 strain as gram-negative bacteria and an S. aureus KCTC25923 strain as gram-positive bacteris, were treated with the peptoids, followed by measuring the minimum inhibitory concentration (MIC). Peptoids 1 and 2 are antimicrobial peptoids known in the art, and used as controls for comparing antimicrobial activity with a novel peptoid.
(§2) Specifically, the S. aureus KCTC25923 or E. coli ATCC25922 strain was inoculated into a Mueller Hinton Broth (MHB2) liquid medium in which cations had been adjusted in the medium, cultured at 37° C. for 18 hours, subcultured, and then incubated for 4 hours. Afterward, for each bacterial strain, an optical density (OD, 0.001) was adjusted so that the bacterial count became 2×10^5 to 5×10^5 colony-forming units (CFU) per mL, which was then diluted with a MHB2 liquid medium containing 0.02% bovine serum albumin and 0.001% acetic acid, and dispensed at 100 μL into a 96-well microplate. Using sterile water, a peptoid stock 40 times stronger than a concentration to be tested was subjected to two-fold serial dilution and assessed at six different concentrations, and the maximum value of the peptoid concentrations was 25 μM. Subsequently, the plate was incubated at 37° C. for 24 hours. Afterward, optical density (OD) values at 600 nm were measured using a microplate reader (Bio-Rad).
(§3) Each MIC value was determined as the average value of a value obtained through three independent experiments.
(§4) Referring to Table 22, to measure the antimicrobial activity of the peptoids synthesized in Example 3, an MIC was measured by treating gram-negative bacteria, that is, the E. coli ATCC25922 strain, and gram-positive bacteria, that is, the S. aureus ATCC25923 strain, with the peptoids. Here, Peptoid 1 is a conventionally known antimicrobial peptoid, and Omiganan is a derivative of indolicidin, which is an antimicrobial peptide, under clinical development, and was used as a control for comparing antimicrobial activity with the novel peptoid.

S. aureus ATCC 25923 = test system: S. aureus ATCC 25923
Method: as §1, §2, §3, §4

red blood cells = test: Hemolysis assay; assay type: cell-based, Sprague-Dawley mouse
Method: To confirm cytotoxicity by the hemolytic activity of each peptoid synthesized in Example 1, hemolysis analysis was performed. The used blood was collected from a 13-week-old male Sprague-Dawley […] in a tube containing 158 UPS sodium heparin for preventing coagulation, and centrifuged at 4° C. for 10 minutes at 1,000 rpm. Afterward, the plasma was carefully removed, red blood cells were washed with phosphate-buffered saline (PBS: a mixed solution of 35 mM phosphate-buffered solution/150 mM NaCl, pH 7.4) three times and centrifuged at 1,000 rpm for 10 minutes. A 10% (v/v) red blood cell solution diluted in PBS was dispensed at 150 μL into a 96-well plate (microtiter plate), a peptoid solution was added at 50 μL, and 1% Triton X-100 was added. Afterward, the red blood cells were incubated at 37° C. for 1 hour, and the incubated 96-well plate was centrifuged at 1,000 rpm for 15 minutes. A supernatant was obtained and transferred to a new 96-well plate at 150 μL, and absorbance was measured using a spectrophotometer at 540 nm. Percent hemolysis may be calculated by the following Equation 1, and the corresponding results are shown in Tables 11 to 13. % Hemolysis=(A−C)/(B−C)×100 [Equation 1] In Equation 1, A is the absorbance of the peptoid solution at 540 nm, B is the absorbance of the 0.1% Triton X-100 at 540 nm, and C is the absorbance of the PBS solution at 540 nm.

[1] = Tables 11-13, 24 hours at 37° C., maximum concentration 25 μM

`NC(=O)CN(CCc1c[nH]c2ccccc12)C(=O)CN(CCc1c[nH]c2ccccc12)C(=O)CN(CCCCO)C(=O)CN(CCc1c[nH]c2ccccc12)C(=O)CN(CCc1c[nH]c2ccccc12)C(=O)CN(CCCCO)C(=O)CN(CCc1c[nH]c2ccccc12)C(=O)CN(CCc1c[nH]c2ccccc12)C(=O)CN(CCCCO)C(=O)CN(CCc1c[nH]c2ccccc12)C(=O)CN(CCc1c[nH]c2ccccc12)C(=O)CNCCCCO` [Peptoid 65] (H-[X1][Gly(N(CH2)2(3-indolyl))][Gly(N(CH2)2(3-indolyl))][X1][Gly(N(CH2)2(3-indolyl))][Gly(N(CH2)2(3-indolyl))][X1][Gly(N(CH2)2(3-indolyl))][Gly(N(CH2)2(3-indolyl))][X1][Gly(N(CH2)2(3-indolyl))][Gly(N(CH2)2(3-indolyl))]-NH2) was tested. Which “MIC E. coli ATCC25922” value (E. coli ATCC25922; [1]) did it give?
Its value is >25 µM.

What about the “MIC S. aureus ATCC 25923” value (S. aureus ATCC 25923; [1]) of the same compound?
The value was >25 µM.

How did the “MIC S. aureus ATCC 25923” value (S. aureus ATCC 25923; [1]) turn out when `C[C@@H](c1ccccc1)N(CC(=O)N(CCCCN)CC(=O)N(CC(=O)N(CC(=O)N(CCCCN)CC(=O)N(CC(=O)N(CC(=O)N(CCCCN)CC(=O)N(CCCCN)CC(N)=O)[C@@H](C)c1ccccc1)[C@@H](C)c1ccccc1)[C@@H](C)c1ccccc1)[C@@H](C)c1ccccc1)C(=O)CN(C(=O)CNCCCCN)[C@@H](C)c1ccccc1` [Peptoid 52] (H-[Nlys][Nspe][Nspe][Nlys][Nspe][Nspe][Nlys][Nspe][Nspe][Nlys][Nlys]-NH2) was run?
Its value is >25 µM.

Which results are given for `C[C@@H](c1ccccc1)N(CC(N)=O)C(=O)CN(CCCCN)C(=O)CN(CCCCN)C(=O)CN(C(=O)CN(CCc1c[nH]cn1)C(=O)CN(CCCCN)C(=O)CN(C(=O)CN(C(=O)CN(CCCCN)C(=O)CN(CCc1c[nH]c2ccccc12)C(=O)CN(CCc1c[nH]c2ccccc12)C(=O)CNCCCCN)[C@@H](C)c1ccccc1)[C@@H](C)c1ccccc1)[C@@H](C)c1ccccc1` [Peptoid 69] (H-[Nlys][Gly(N(CH2)2(3-indolyl))][Gly(N(CH2)2(3-indolyl))][Nlys][Nspe][Nspe][Nlys][Gly(N-CH2CH2-imidazol-4-yl)][Nspe][Nlys][Nlys][Nspe]-NH2)?
MIC E. coli ATCC25922 (E. coli ATCC25922; ATCC25922): 25 µM (≈ 46.4 µg/mL); MIC S. aureus ATCC 25923 (S. aureus ATCC 25923; ATCC 25923): 25 µM (≈ 46.4 µg/mL)

With `C[C@@H](c1ccccc1)N(CC(N)=O)C(=O)CN(CCCCN)C(=O)CN(CCCCN)C(=O)CN(C(=O)CN(C(=O)CN(CCc1c[nH]cn1)C(=O)CN(C(=O)CN(C(=O)CN(CCCCN)C(=O)CN(CCc1c[nH]c2ccccc12)C(=O)CN(CCc1c[nH]c2ccccc12)C(=O)CNCCCCN)[C@@H](C)c1ccccc1)[C@@H](C)c1ccccc1)[C@@H](C)c1ccccc1)[C@@H](C)c1ccccc1` [Peptoid 74, H-NLys-NhTrp-NhTrp-NLys-Nspe-Nspe-NHis-Nspe-Nspe-NLys-NLys-Nspe-NH2] (H-[Nlys][Gly(N(CH2)2(3-indolyl))][Gly(N(CH2)2(3-indolyl))][Nlys][Nspe][Nspe][Gly(N-CH2CH2-imidazol-4-yl)][Nspe][Nspe][Nlys][Nlys][Nspe]-NH2) as the compound, how does the “cytotoxicity against red blood cells / hemolysis (in words)” value (red blood cells) read?
Its value is “improved in toxicity”.

What about the “antimicrobial activity (in words)” value (E. coli ATCC25922) of the same compound?
The value was “retained antimicrobial activity”.

Which results are given for `C[C@@H](c1ccccc1)N(CC(N)=O)C(=O)CN(CCCCN)C(=O)CN(CCCCN)C(=O)CN(CCc1c[nH]cn1)C(=O)CN(C(=O)CN(CCCCN)C(=O)CN(C(=O)CN(C(=O)CN(CCCCN)C(=O)CN(CCc1c[nH]c2ccccc12)C(=O)CN(CCc1c[nH]c2ccccc12)C(=O)CNCCCCN)[C@@H](C)c1ccccc1)[C@@H](C)c1ccccc1)[C@@H](C)c1ccccc1` [Peptoid 70] (H-[Nlys][Gly(N(CH2)2(3-indolyl))][Gly(N(CH2)2(3-indolyl))][Nlys][Nspe][Nspe][Nlys][Nspe][Gly(N-CH2CH2-imidazol-4-yl)][Nlys][Nlys][Nspe]-NH2)?
MIC E. coli ATCC25922 (E. coli ATCC25922; ATCC25922): >25 µM; MIC S. aureus ATCC 25923 (S. aureus ATCC 25923; ATCC 25923): >25 µM

What does the source list for `C[C@@H](c1ccccc1)N(CC(=O)N(CCCCO)CC(=O)N(CCc1c[nH]c2ccccc12)CC(=O)N(CCc1c[nH]c2ccccc12)CC(N)=O)C(=O)CN(CCCCO)C(=O)CN(CCCCO)C(=O)CN(C(=O)CN(C(=O)CN(CCCCO)C(=O)CN(C(=O)CN(C(=O)CNCCCCO)[C@@H](C)c1ccccc1)[C@@H](C)c1ccccc1)[C@@H](C)c1ccccc1)[C@@H](C)c1ccccc1` [Peptoid 66]?
MIC E. coli ATCC25922 (E. coli ATCC25922; [1]): >25 µM; MIC S. aureus ATCC 25923 (S. aureus ATCC 25923; [1]): >25 µM

`C[C@@H](c1ccccc1)N(CC(=O)N(CCCCN)CC(=O)N(CC(=O)N(CC(=O)N(CCCCN)CC(=O)N(CCCCN)CC(=O)N(CCc1c[nH]cn1)CC(N)=O)[C@@H](C)c1ccccc1)[C@@H](C)c1ccccc1)C(=O)CN(C(=O)CN(CCCCN)C(=O)CN(CCc1c[nH]c2ccccc12)C(=O)CN(CCc1c[nH]c2ccccc12)C(=O)CNCCCCN)[C@@H](C)c1ccccc1` [Peptoid 71] (H-[Nlys][Gly(N(CH2)2(3-indolyl))][Gly(N(CH2)2(3-indolyl))][Nlys][Nspe][Nspe][Nlys][Nspe][Nspe][Nlys][Nlys][Gly(N-CH2CH2-imidazol-4-yl)]-NH2) was tested. Which “MIC E. coli ATCC25922” value (E. coli ATCC25922; ATCC25922) did it give?
The value was >25 µM.

What about the “MIC S. aureus ATCC 25923” value (S. aureus ATCC 25923; ATCC 25923) of the same compound?
The value was >25 µM.

Which results are given for `C[C@@H](c1ccccc1)N(CC(N)=O)C(=O)CN(CCCCN)C(=O)CN(CCCCN)C(=O)CN(C(=O)CN(C(=O)CN(CCCCN)C(=O)CN(CCc1c[nH]cn1)C(=O)CN(C(=O)CN(CCCCN)C(=O)CN(CCc1c[nH]c2ccccc12)C(=O)CN(CCc1c[nH]c2ccccc12)C(=O)CNCCCCN)[C@@H](C)c1ccccc1)[C@@H](C)c1ccccc1)[C@@H](C)c1ccccc1` [Peptoid 68] (H-[Nlys][Gly(N(CH2)2(3-indolyl))][Gly(N(CH2)2(3-indolyl))][Nlys][Nspe][Gly(N-CH2CH2-imidazol-4-yl)][Nlys][Nspe][Nspe][Nlys][Nlys][Nspe]-NH2)?
MIC E. coli ATCC25922 (E. coli ATCC25922; ATCC25922): >25 µM; MIC S. aureus ATCC 25923 (S. aureus ATCC 25923; ATCC 25923): 25 µM (≈ 46.4 µg/mL)

Which “cytotoxicity against red blood cells / hemolysis (in words)” value (red blood cells) does the source give for `C[C@@H](c1ccccc1)N(CC(=O)N(CCCCN)CC(=O)N(CCc1c[nH]c2ccccc12)CC(=O)N(CCc1c[nH]c2ccccc12)CC(N)=O)C(=O)CN(CCCCN)C(=O)CN(CCc1c[nH]cn1)C(=O)CN(C(=O)CN(C(=O)CN(CCCCN)C(=O)CN(C(=O)CN(C(=O)CNCCCCN)[C@@H](C)c1ccccc1)[C@@H](C)c1ccccc1)[C@@H](C)c1ccccc1)[C@@H](C)c1ccccc1` [Peptoid 79, H-NLys-Nspe-Nspe-NLys-Nspe-Nspe-NHis-NLys-Nspe-NLys-NhTrp-NhTrp-NH2] (H-[Nlys][Nspe][Nspe][Nlys][Nspe][Nspe][Gly(N-CH2CH2-imidazol-4-yl)][Nlys][Nspe][Nlys][Gly(N(CH2)2(3-indolyl))][Gly(N(CH2)2(3-indolyl))]-NH2) here?
Its value is “improved in toxicity”.

What about the “antimicrobial activity (in words)” value (E. coli ATCC25922) of the same compound?
The value was “retained antimicrobial activity”.

With `C[C@@H](c1ccccc1)N(CC(=O)N(CCCCN)CC(=O)N(CC(=O)N(CC(=O)N(CCCCN)CC(=O)N(CCc1c[nH]c2ccccc12)CC(=O)N(CCc1c[nH]c2ccccc12)CC(=O)N(CCCCN)CC(=O)N(CCc1c[nH]c2ccccc12)CC(=O)N(CCc1c[nH]c2ccccc12)CC(N)=O)[C@@H](C)c1ccccc1)[C@@H](C)c1ccccc1)C(=O)CN(C(=O)CNCCCCN)[C@@H](C)c1ccccc1` [Peptoid 19] (H-[Nlys][Nspe][Nspe][Nlys][Nspe][Nspe][Nlys][Gly(N(CH2)2(3-indolyl))][Gly(N(CH2)2(3-indolyl))][Nlys][Gly(N(CH2)2(3-indolyl))][Gly(N(CH2)2(3-indolyl))]-NH2) as the compound, how does the “Hmax (100 μM)” value (red blood cells) read?
The value was 101.5 ± 1.3%.

And the HC10 (red blood cells; Tables 11-13, concentration that induces hemolysis in 10% red blood cells)?
The HC10 was 3.8 µM.

What about the HC50 (red blood cells; Tables 11-13, concentration that induces hemolysis in 50% red blood cells) of the same compound?
Its HC50 is 12.5 µM.

What about the “MIC E. coli ATCC25922” value (E. coli ATCC25922; [1]) of the same compound?
The value was 12.5 µM (≈ 24.7 µg/mL).

Which results are given for `C[C@@H](c1ccccc1)N(CC(N)=O)C(=O)CN(CCCCN)C(=O)CN(C(=O)CN(C(=O)CN(CCCCN)C(=O)CN(C(=O)CN(C(=O)CN(CCCCN)C(=O)CN(C(=O)CN(CCCCN)C(=O)CNCCCCN)[C@@H](C)c1ccccc1)[C@@H](C)c1ccccc1)[C@@H](C)c1ccccc1)[C@@H](C)c1ccccc1)[C@@H](C)c1ccccc1` [Peptoid 49]?
HC10 (red blood cells): >100/>100 μM; HC50 (red blood cells): >100/>100 μM; Hmax (100 μM) (red blood cells): 0.3 ± 0.3%; MIC S. aureus ATCC 25923 (S. aureus ATCC 25923; [1]): >25 µM
